{"source": "patent US4223041A", "about": "“Urea derivatives to treat anxiety and aggressivity” (Labaz, priority 1976, dated 1980)", "key": {"[1]": {"experiment": "Anxiolytic and antiaggressive properties and separation from sedation (general statements)", "conditions": "in vivo"}, "[2]": {"experiment": "Four plates test (anxiolytic action)", "type": "in vivo, mouse", "conditions": "0.5 h, mouse, 30 min after administration, read-out: % of protection against anxiety", "description": "This test, which is specific to the anxiolytics, was undertaken with the mouse, thirty minutes after the oral administration of the compound to be studied.\nIt consists in placing mice in a box with fairly high walls, of which the bottom comprises four square plates. These plates, which all have the same dimensions, are separated from each other by a central axis and are alternately electrified by the positive and negative poles of a source of electric current. There is a space of a few millimeters between adjacent plates.\nThe mouse placed in this apparatus explores it and thus passes over the different plates in succession. Note is taken of the number of times each animal passes over the plates during one minute. When the current is switched on, the mouse passing over the plates receives an electric shock (80 V), which provokes a gradual decrease in the exploratory movements, and finally brings the animals to a complete stop.\nAnxiolytic agents enable the animals to become more or less indifferent to the electric shock.\nThe percentage of protection against anxiety given by compounds of the invention was calculated by comparing the number of times the control animals passed over the plates when electrified with the number of times the treated animals passed over the electrified plates."}, "[3]": {"experiment": "Action on the pentylenetetrazole-induced seizure (anticonvulsant activity)", "type": "in vivo, mouse", "protocol": "The purpose of this test which is carried out on mice is to determine whether the compounds of the invention, when given preventively by oral route, are capable at certain doses of protecting some of the animals against the epileptic seizure produced by a predetermined dose of pentylenetetrazole which would be 100% fatal in the absence of the compound.\nThe compound to be studied was administered fifteen minutes before an injection of 125 mg/kg of pentylenetetrazole and note was taken of the number of deaths occurring during the three hours following this injection. The results were expressed in percentage of protection of the animals against death at the dose studied."}, "[4]": {"experiment": "rota rod test (neurotoxicity)", "type": "in vivo, mouse", "conditions": "370 mg/kg oral, mice, 30 min after administration", "protocol": "The test used was that known as the rota rod test described by BOISSIER (Therapie 1958 XIII pp. 1074-1118).\nThis test aims at determining the ability of mice to coordinate their movements by seeing to what extent they can remain on a roller turning at a rate of 4 revolutions per minute for two minutes. The trial was carried out thirty minutes after administration by oral route of the compound to be studied and the percentage of failures was noted.\nThe value of this test is twofold. Failure on the part of the animals gives a very early indication of the slightest damage to the meuromuscular functions which cannot be discerned by any other means. Secondly, this test serves as an element of comparison for drawing up index figures involving the results obtained with other tests."}, "[5]": {"experiment": "Action with respect to tremorine (cholinolytic properties)", "type": "in vivo, mouse", "conditions": "mice, 30 min before 100 mg/kg i.p. tremorine", "protocol": "This test has been described by EVERETT (Nature, 1956, 177-238)\nWhen injected into mice, tremorine produces peripheral cholinergic effects i.e. weeping, hypersalivation, sedation, diarrhea as well as central cholinergic effects i.e. tremors, akinesia.\nBatches of 10 mice separated into individual cages, were given the compound to be studied, by oral route, 30 minutes before administration of an intraperitoneal dose of 100 mg/kg of tremorine.\nNote was then taken in each batch of the percentage of animals presenting the various symptoms of tremorine-induced poisoning since at such a dose of tremorine 100% of the control animals are poisoned.\nThe results hereunder are expressed in percentage of mice protected against tremor at the dose of the compound of the invention which was administered: […]"}, "[6]": {"experiment": "\"Electrically-provoked combat\" test (anxiolytic action)", "type": "in vivo, mouse", "conditions": "Mus musculus, 0.5 h, mice, 30 min before test, read-out: % of decrease in number of combats", "description": "Under certain conditions, a pair of mice reacts to an electric stimulus by a series of combats which are provoked by the anxiety felt by the animals as a result of the electric shock. This anxiety is expressed by a combat with the other animal which is rendered responsible. For this reason, the test described hereunder can be considered as a means of evaluating the anxiolytic action of a compound. Two mice which have been previously on a diet consisting only of water are placed together in a cage. They are then submitted to a series of electric impulses of an intensity varying between 40 and 80 volts according to the sensitivity of the animals. The test is first carried out with untreated animals as controls and then with the same animals treated 30 minutes before the test with a dose of the compound to be studied.\nNote is taken on the number of combats engaged. The results are expressed in percentage of decrease in the number of combats engaged by the treated animals in comparison with the number of combats registered before treatment."}, "[7]": {"conditions": "cited from earlier work"}, "[8]": {"conditions": "Mus musculus, po, 3 h, read-out: % of protection against death"}, "[9]": {"conditions": "Arch. Int. Pharmacodyn 219, 104-115 (1976)"}}, "note": "Like-named read-outs stand apart in the source and are kept apart here.", "data": [{"smiles": "CCCC(CCC)(CCC)NC(=O)NC(C)=O", "note": "[1-(1,1-di-n-propyl-n-butyl)-3-acetyl-urea]", "values": [{"measurement": "anxiolytic and antiaggressive activity (in words)", "setting": "[1]", "value": "inactive or practically devoid of any anxiolytic or antiaggressive activity"}]}, {"smiles": "CCCC(CCC)(CCC)NC(=O)NC(=O)c1ccccc1", "note": "[1-(1,1-di-n-propyl-n-butyl)-3-benzoyl-urea]", "values": [{"measurement": "anxiolytic and antiaggressive activity (in words)", "setting": "[1]", "value": "inactive or practically devoid of any anxiolytic or antiaggressive activity"}]}, {"smiles": "C#CC(CC)(CC)NC(N)=O", "note": "[Compound C, 1-(1,1-Diethyl-2-propynyl)-urea]", "values": [{"measurement": "inhibition in vivo at 105 mg/kg", "setting": "[2]; 105 mg/kg oral", "value": 50, "unit": "%"}, {"measurement": "responders at 70 mg/kg", "setting": "[3]; [8]", "value": 50, "unit": "%"}, {"measurement": "anticonvulsant activity (in words)", "setting": "[3]; pentylenetetrazole-induced seizure, mice, oral", "value": "considerable"}, {"measurement": "% of failures in rota rod test", "setting": "[4]", "value": 50, "unit": "%"}, {"measurement": "% of protection against tremor", "setting": "[5]; 170 mg/kg oral", "value": 0, "unit": "%"}, {"measurement": "inhibition in vivo at 71 mg/kg", "setting": "[6]; 71 mg/kg", "value": 50, "unit": "%"}]}, {"smiles": "C=CCC(CCC)(CCC)NC(N)=O", "note": "[Compound E, 1-(1,1-Di-n-propyl-3-butenyl)-urea]", "values": [{"measurement": "inhibition in vivo at 100 mg/kg", "setting": "[2]; 100 mg/kg oral", "value": 27, "unit": "%"}, {"measurement": "responders at 300 mg/kg", "setting": "[3]; [8]", "value": 90, "unit": "%"}, {"measurement": "% of protection against tremor", "setting": "[5]; 100 mg/kg oral", "value": 0, "unit": "%"}, {"measurement": "inhibition in vivo at 50 mg/kg", "setting": "[6]; 50 mg/kg", "value": 70, "unit": "%"}]}, {"smiles": "CCCCNC(N)=O", "note": "[n-butyl-urea]", "values": [{"measurement": "pharmacological properties (in words)", "setting": "[7]; Arch. Int. Pharmacodyn 208, 204-212 (1974)", "value": "properties similar to those cited hereabove with respect to tert-butyl-urea"}]}, {"smiles": "CC(C)(C)NC(N)=O", "note": "[tert-butyl-urea]", "values": [{"measurement": "pharmacological properties (in words)", "setting": "[7]; [9]", "value": "anticonvulsant, hypnotic and sedative properties"}, {"measurement": "potentiation of hypnotic effects of the barbiturates", "setting": "[7]; [9]", "value": "potentiator of the hypnotic effects of the barbiturates"}]}]}
